For one assay, the system named is Colo205 cell line. The assay is described as follows: Colo205 cell proliferation assay (MTT assay, WST-8). It counts as cell-based. Conditions: Homo sapiens, COLO 205; 72 hours incubation; read-out: Colo 205 Cell Activity (IC50 of growth inhibition in Colo 205 cells). The protocol: Compounds disclosed herein were tested for the inhibition of ERK2 by a Colo205 cell proliferation assay commonly known as MTT assay. In this assay, a complete media was prepared by adding 10% fetal bovine serum to RPMI-1640 medium (Life technology). Colon cancer cells (Colo205 cell line) were added to each of 88 wells of a 96 well plate at a seeding density of 5,000 cells/well/90 μL. The cells were allowed to attach to the plate by incubating at 37° C. for 24 hours. The compound was dissolved in DMSO (SIGMA). A solution of test compound was prepared in complete media by serial dilution to obtain the following concentrations: 500 μM, 150 μM, 50 μM, 15 μM, 5 μM, 1.5 μM, 0.5 μM, 0.15 μM and 0.05 μM. The test compound solution (10 μL) was added to each of 80 cell-containing wells. The final concentrations of the compound were following: 50 μM, 15 μM, 5 μM, 1.5 μM, 0.5 μM, 0.15 μM, 0.05 μM, 0.015 μM and 0.005 μM. The final concentration of DMSO is 0.5%. To the 8 remaining cell-containing wells, only complete media (containing 0.5% DMSO) was added to form a control group in order to measure maximal proliferation. To the remaining 8 empty wells, complete media was added to for a vehicle control group in order to measure background. The plates were incubated at 37° C. for 72 hours. 10 μL WST-8 solution (DOJINDO, Cell Counting KIT-8) was added to each well. The plates were further incubated at 37° C. for 2 hours, and then read for the absorbance using a microplate reader at 450 nm.
The IC50 values of growth inhibition in Colo 205 cells for compounds disclosed are listed in Table 3, A′: ≤0.5 μM; B′: >0.5 μM and ≤1 μM; C′: >1.0 μM and ≤5 uM; D′: >5 μM.

The target of another assay is T1, human ERK2 (Homo sapiens, UniProt P28482).
T1 construct: recombinantly expressed as GST-tagged full-length protein purified from E. coli; GST; purchased Invitrogen PV3311; host or cells: E. coli
The assay can be described thus: LanthaScreen TR-FRET ERK2 enzymatic assay. Conditions: 5 μM ATP, one hour reaction; read-out: ERK2 Biochemical Activity (IC50 of ERK2 inhibition). The protocol:
Compounds were tested in a LanthaScreen™ time-resolved fluorescence energy transfer (TR-FRET) enzymatic assay from Invitrogen. The assay used human ERK2 (Mitogen Activated Kinase 1, Invitrogen, Cat. PV3311) recombinantly expressed as GST-tagged full-length protein purified from E. coli and activated in vitro with MAP2K1. The substrate was a recombinant truncated version (residues 19-96) of ATF2 fused with Green Fluorescent Protein (Invitrogen, Cat. PV4445). Test compounds were prepared and diluted in DMSO in 3-fold serial dilutions to 100× of the final testing concentrations. The compounds were then further diluted to 4× by the kinase reaction buffer (Invitrogen, Cat. PV3189). The enzymatic reaction for compound testing was performed in a white 384-well polypropylene plate (Packard, Cat. 6005214) with a total reaction volume of 10 μl containing 20 ng/ml ERK2, 400 nM substrate, and 5 μM ATP that is around its Km. The assay started with loading 2.5 μl of ERK2 diluted in kinase reaction buffer to wells, followed by addition of equal volume of 4× compounds for 15-min incubation at the room temperature for pre-treatment. The enzymatic reaction was initiated by addition of 5 μl of mixture of the substrate and ATP prepared in kinase reaction buffer. After one hour reaction, 10 μl mixture of EDTA (final 10 mM) and terbium-labeled anti-pATF2 (pThr71) antibody (final 2 nM) (Invitrogen, Cat. PV4451) prepared in TR-FRET antibody dilution buffer (Invitrogen, Cat. PV3574) was added to stop the enzymatic reaction and produce TR-FRET signals. After 30 minutes of incubation at room temperature, the plate was read in Tecan Infinite F200 Pro with the following settings: Excitation 340 nm (30)/Emission1 495 nm (10)/Emission2 520 nm (25). The TR-FRET values were dimensionless numbers that were calculated as the ratio of the acceptor ([…]) signal to the donor (Terbium) signal. Percent of control was calculated as the percentage of compound-treated vs 1% DMSO vehicle-treated. The dose-response curves were generated and the IC50s were calculated by nonlinear sigmoid curve fitting using GraphPad Prism.
The IC50 values of ERK2 inhibition for compounds disclosed are listed in Table 3, A: ≤10 nM; B: >10 nM and ≤100 nM; C: >100 nM and ≤1 uM; D: >1 μM.

T1 sequence (P28482 whole entry): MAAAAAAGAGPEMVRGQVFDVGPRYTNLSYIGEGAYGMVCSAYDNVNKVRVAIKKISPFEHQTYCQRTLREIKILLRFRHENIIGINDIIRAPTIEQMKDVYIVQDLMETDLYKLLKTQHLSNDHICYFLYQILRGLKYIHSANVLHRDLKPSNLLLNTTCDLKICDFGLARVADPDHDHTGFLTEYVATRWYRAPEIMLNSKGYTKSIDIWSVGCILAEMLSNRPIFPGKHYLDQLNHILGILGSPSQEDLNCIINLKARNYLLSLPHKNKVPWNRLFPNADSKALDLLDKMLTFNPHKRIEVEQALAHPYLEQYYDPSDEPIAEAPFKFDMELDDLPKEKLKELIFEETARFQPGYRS

Consider `CC(c1ccnc(C(F)(F)F)c1)N1C(=O)c2cc(-c3ccnc(Nc4ccnn4C)n3)sc2C1(C)C` (racemic) [Example 9, 6,6-dimethyl-2-(2-(1-methyl-1H-pyrazol-5-ylamino)pyrimidin-4-yl)-5-(1-(2-(trifluoromethyl)pyridin-4-yl)ethyl)-5,6-dihydro-4H-thieno[2,3-c]pyrrol-4-one], for which the results for the half-inhibitory concentration (IC50) with Colo205 cell line and at human ERK2 were no more than 500 nM and no more than 10 nM, respectively.
Take `CC(c1nc(C(F)(F)F)cs1)N1C(=O)c2cc(-c3ccnc(Nc4ccnn4C)n3)sc2C1(C)C` (racemic) [Example 10, 6,6-dimethyl-2-(2-(1-methyl-1H-pyrazol-5-ylamino)pyrimidin-4-yl)-5-(1-(4-(trifluoromethyl)thiazol-2-yl)ethyl)-5,6-dihydro-4H-thieno[2,3-c]pyrrol-4-one]: the IC50 was no more than 500 nM with Colo205 cell line and no more than 10 nM on human ERK2.
The like results for `Cn1nccc1Nc1nccc(-c2cc3c(s2)C(C)(C)N(Cc2ccnc(C(F)(F)F)c2)C3=O)n1` [Example 1, 6,6-dimethyl-2-(2-(1-methyl-1H-pyrazol-5-ylamino)pyrimidin-4-yl)-5-((2-(trifluoromethyl)pyridin-4-yl)methyl)-5,6-dihydro-4H-thieno[2,3-c]pyrrol-4-one] were, in that order, no more than 500 nM and no more than 10 nM.
The like results for `Cn1nccc1Nc1nccc(-c2cc3c(s2)C(C)(C)N(Cc2cccc(Cl)c2)C3=O)n1` [Example 2, 5-(3-chlorobenzyl)-6,6-dimethyl-2-(2-(1-methyl-1H-pyrazol-5-ylamino)pyrimidin-4-yl)-5,6-dihydro-4H-thieno[2,3-c]pyrrol-4-one] were, in that order, no more than 500 nM and no more than 10 nM.
Taken in the same sequence, the figures for `Cn1nccc1Nc1nccc(-c2cc3c(s2)C(C)(C)N(Cc2cccc(C(F)(F)F)n2)C3=O)n1` [Example 3, 6,6-dimethyl-2-(2-((1-methyl-1H-pyrazol-5-yl)amino)pyrimidin-4-yl)-5-((6-(trifluoromethyl)pyridin-2-yl)methyl)-5,6-dihydro-4H-thieno[2,3-c]pyrrol-4-one] were no more than 500 nM and no more than 10 nM.
Consider `Cn1nccc1Nc1nccc(-c2cc3c(s2)C(C)(C)N(Cc2ccc(C(F)(F)F)nc2)C3=O)n1` [Example 4, 6,6-dimethyl-2-(2-((1-methyl-1H-pyrazol-5-yl)amino)pyrimidin-4-yl)-5-((6-(trifluoromethyl)pyridin-3-yl)methyl)-5,6-dihydro-4H-thieno[2,3-c]pyrrol-4-one], for which the IC50 was 500 to 1000 nM with Colo205 cell line and no more than 10 nM at human ERK2.
Taken in the same sequence, the figures for `Cn1nccc1Nc1nccc(-c2cc3c(s2)C(C)(C)N(Cc2nc(C(F)(F)F)cs2)C3=O)n1` [Example 5, 6,6-dimethyl-2-(2-((1-methyl-1H-pyrazol-5-yl)amino)pyrimidin-4-yl)-5-((4-(trifluoromethyl)thiazol-2-yl)methyl)-5,6-dihydro-4H-thieno[2,3-c]pyrrol-4-one] were no more than 500 nM and no more than 10 nM.
Consider `Cn1nccc1Nc1nccc(-c2cc3c(s2)C(C)(C)N(Cc2ccnc(C(F)(F)F)n2)C3=O)n1` [Example 6, 6,6-dimethyl-2-(2-((1-methyl-1H-pyrazol-5-yl)amino)pyrimidin-4-yl)-5-((2-(trifluoromethyl)pyrimidin-4-yl)methyl)-5,6-dihydro-4H-thieno[2,3-c]pyrrol-4-one], for which the IC50 in the assay on Colo205 cell line is no more than 500 nM; on human ERK2 it was no more than 10 nM.
Taken in the same sequence, the figures for `Cn1nccc1Nc1nccc(-c2cc3c(s2)C(C)(C)N(Cc2cc(C(F)(F)F)no2)C3=O)n1` [Example 7, 6,6-dimethyl-2-(2-((1-methyl-1H-pyrazol-5-yl)amino)pyrimidin-4-yl)-5-((3-(trifluoromethyl)isoxazol-5-yl)methyl)-5,6-dihydro-4H-thieno[2,3-c]pyrrol-4-one] were no more than 500 nM and no more than 10 nM.
As for `Cn1nccc1Nc1nccc(-c2cc3c(s2)C(C)(C)N(CCc2ccnc(C(F)(F)F)c2)C3=O)n1` [Example 8, 6,6-dimethyl-2-(2-((1-methyl-1H-pyrazol-5-yl)amino)pyrimidin-4-yl)-5-(2-(2-(trifluoromethyl)pyridin-4-yl)ethyl)-5,6-dihydro-4H-thieno[2,3-c]pyrrol-4-one], the IC50 in the assay with Colo205 cell line lay within 1000 to 5000 nM.
Turning to `Cn1nccc1Nc1nccc(-c2cc3c(s2)C(C)(C)N([C@H](CO)c2cccc(Cl)c2)C3=O)n1` [Example 11, (S)-5-(1-(3-chlorophenyl)-2-hydroxyethyl)-6,6-dimethyl-2-(2-((1-methyl-1H-pyrazol-5-yl)amino)pyrimidin-4-yl)-5,6-dihydro-4H-thieno[2,3-c]pyrrol-4-one], in the assay on Colo205 cell line, the IC50 is no more than 500 nM.
Still for that read-out and setting: to `CC(c1cccc(C(F)(F)F)n1)N1C(=O)c2cc(-c3ccnc(Nc4ccnn4C)n3)sc2C1(C)C` (stereo not shown) [Example 12, 6,6-dimethyl-2-(2-((1-methyl-1H-pyrazol-5-yl)amino)pyrimidin-4-yl)-5-(1-(6-(trifluoromethyl)pyridin-2-yl)ethyl)-5,6-dihydro-4H-thieno[2,3-c]pyrrol-4-one] belongs 1000 to 5000 nM.
For the compound `CC(c1ccnc(C(F)(F)F)n1)N1C(=O)c2cc(-c3ccnc(Nc4ccnn4C)n3)sc2C1(C)C` (stereo not shown) [Example 13, 6,6-dimethyl-2-(2-((1-methyl-1H-pyrazol-5-yl)amino)pyrimidin-4-yl)-5-(1-(2-(trifluoromethyl)pyrimidin-4-yl)ethyl)-5,6-dihydro-4H-thieno[2,3-c]pyrrol-4-one], the results for the IC50 in the assay with Colo205 cell line and on human ERK2 were no more than 500 nM and 10 to 100 nM, respectively.
For the compound `Cn1nccc1Nc1nccc(-c2cc3c(s2)C(C)(C)N(CC(=O)N[C@H](CO)c2cccc(Cl)c2)C3=O)n1` [Example 14, (S)—N-(1-(3-chlorophenyl)-2-hydroxyethyl)-2-(6,6-dimethyl-2-(2-((1-methyl-1H-pyrazol-5-yl)amino)pyrimidin-4-yl)-4-oxo-4H-thieno[2,3-c]pyrrol-5(6H)-yl)acetamide], the IC50 in the assay on Colo205 cell line was no more than 500 nM; at human ERK2, no more than 10 nM.
Take `CC(C(=O)N[C@H](CO)c1cccc(Cl)c1)N1C(=O)c2cc(-c3ccnc(Nc4ccnn4C)n3)sc2C1(C)C` (stereo partly drawn) [Example 15, N—((S)-1-(3-chlorophenyl)-2-hydroxyethyl)-2-(6,6-dimethyl-2-(2-((1-methyl-1H-pyrazol-5-yl)amino)pyrimidin-4-yl)-4-oxo-4H-thieno[2,3-c]pyrrol-5(6H)-yl)propanamide]: in the assay with Colo205 cell line, the IC50 is 500 to 1000 nM.
On the same count and under the same terms, to `Cn1nccc1Nc1nccc(-c2cc3c(s2)C(C)(C)N(CC(=O)NCc2ccnc(C(F)(F)F)c2)C3=O)n1` [Example 16, 2-(6,6-dimethyl-2-(2-((1-methyl-1H-pyrazol-5-yl)amino)pyrimidin-4-yl)-4-oxo-4H-thieno[2,3-c]pyrrol-5(6H)-yl)-N-((2-(trifluoromethyl)pyridin-4-yl)methyl)acetamide] belongs 1000 to 5000 nM; to `Cn1nccc1Nc1nccc(-c2cc3c(s2)C(C)(C)N(CCN[C@H](CO)c2cccc(Cl)c2)C3=O)n1` [Example 17, (S)-5-(2-((1-(3-chlorophenyl)-2-hydroxyethyl)amino)ethyl)-6,6-dimethyl-2-(2-((1-methyl-1H-pyrazol-5-yl)amino)pyrimidin-4-yl)-5,6-dihydro-4H-thieno[2,3-c]pyrrol-4-one], 500 to 1000 nM.
